From patent publication US20210386791A1, “METHODS OF CELLULAR REPROGRAMMING” (TissueTech, Inc., priority 2018, published 2021)

Test system: human corneal fibroblasts (HCF)
Experiment: Reversal of HCF to keratocytes on immobilized HC-HA/PTX3 with or without SB431542 or AMD3100
Type: cell-based
Conditions: day 1 up to 7 days
Description: A total of 86 human corneas from individuals aged 18-76 years and maintained at 4° C. in Optisol (Chiron Vision, Irvine, Calif.) for less than 7 days after death were obtained from the Florida Lions Eye Bank (Miami, Fla.) and handled according to the declaration of Helsinki. HCF were isolated and cultured. Briefly, the sheets of the epithelium and the endothelium were removed from corneas, the stroma sections were cut into cubes of approximately 1 mm3, incubated in 2 mg/ml collagenase for 16 h at 37° C., and then placed in a culture medium consisting of DMEM supplemented with 10% fetal bovine serum containing […]. The culture medium was refreshed twice a week. The cells cultured to passage 3 were used for all experiments. To reverse fibroblasts or myofibroblasts into keratocytes, fibroblasts or myofibroblasts were cultured on immobilized HC-HA/PTX3 in DMEM+10% FBS for 3 days using the samples from the cells on plastic and HA as the controls. Some of the cell cultures were extended to up to 7 days of culture to monitor the expression of α-SMA formation. Total RNAs were extracted using RNeasy Mini Kit (Qiagen) and reverse-transcribed using High Capacity Reverse Transcription Kit (Applied Biosystems). cDNA was amplified by real-time RT-PCR using specific primer-probe mixtures and DNA polymerase in Quant Studio 5 Real-time PCR System (Applied Biosystems). Real-time RT-PCR profile consisted of 10 min of initial activation at 95° C., followed by 40 cycles of 15 s denaturation at 95° C., and 1 min annealing and extension at 60° C. The genuine identity of each PCR product was confirmed by the size determination using 2% agarose gels followed by ethidium bromide staining together with PCR marker according to EC3 Imaging System (BioImaging System, Upland, Calif.). The samples of human corneal fibroblasts, myofibroblasts and corneal keratocytes were air-dried and fixed in 4% formaldehyde, pH 7.0, for 15 min at room temperature, rehydrated in PBS, incubated with 0.2% Triton X-100 for 15 min, and rinsed 3 times with PBS for 5 min each. […] After three washes with PBS, they were incubated with corresponding Alexa-Fluor-conjugated secondary IgG (all 1:100 dilution) for 60 min. The samples were then counterstained with Hoechst 33342 and analyzed in Zeiss LSM 700 confocal microscope (Thornhood, N.Y.). Corresponding mouse and rabbit sera were used as negative controls for primary monoclonal and polyclonal antibodies, respectively. Cell lysates were prepared in RIPA buffer and resolved on 4-15% (w/v) gradient acrylamide gels under denaturing and reducing conditions for Western blotting. The protein extracts were transferred to the nitrocellulose membrane, which was then blocked with 5% (w/v) fat-free milk in TBST [50 mM Tris-HCl, pH 7.5, 150 mM NaCl, 0.05% (v/v) Tween-20], followed by sequential incubation with the specific primary antibody against keratocan and its respective horseradish peroxidase (HRP)-conjugated secondary antibody using β-actin as the loading control. Immunoreactive proteins were detected with Western Lighting Chemiluminescence (PerkinElmer, Waltham, Mass.).

hyaluronic acid [HA]
aggregation of HCF: formed some aggregates
